Data reported in patent US8883841B2, “Oncogenic ras-specific cytotoxic compound and methods of use thereof” (The Board of Regents of the University of Texas System, priority 2005, dated 2014).
pIC50: −log10 of the molar value. Read-outs that look alike come from different tables or passages of the source.

Experiments:
[1] = test system: H460 cells; conditions: for IC50 in H460 cells: Table 1, value is the negative log10 of mol/L
[2] = test system: T29 cells; conditions: Table 1; value is the negative log10 of mol/L
[3] = test system: T29Kt1 cells; conditions: Table 1, value is the negative log10 of mol/L
[4] = test system: H226B cells; experiment: Cell viability, H226B lung cancer cells; type: cell-based, human; conditions: for IC50: Homo sapiens
[5] = test system: A549 cells; experiment: Cell viability, A549 lung cancer cells; type: cell-based, human; conditions: for IC50: Homo sapiens, A549, read-out: IC50 (−LogM), A549, Lung (converted)
[6] = test system: A549CK8; experiment: Cell viability, A549CK8 lung cancer cells; type: cell-based, human; conditions: for IC50: Homo sapiens, read-out: IC50 (−LogM) (converted)
[7] = test system: Hct116; experiment: Cell viability, Hct116 colon cancer cells; type: cell-based, human; conditions: for IC50: Homo sapiens
[8] = test system: CT116P53; experiment: Cell viability, CT116P53 colon cancer cells; type: cell-based, human; conditions: for IC50: Homo sapiens, read-out: IC50 (−LogM) (converted)
[9] = test system: HKE3; experiment: Cell viability, HKE3 colon cancer cells; type: cell-based, human; conditions: for IC50: Homo sapiens
[10] = test system: AsPC-1; experiment: Cell viability, AsPC-1 pancreatic cancer cells; type: cell-based, human; conditions: for IC50: Homo sapiens
[11] = test system: DLD1; experiment: Cell viability, DLD1 colon cancer cells; type: cell-based, human; conditions: for IC50: Homo sapiens
[12] = test system: Heb46; experiment: Cell viability, Heb46 kidney cells; type: cell-based
[13] = test system: Heb44; experiment: Cell viability, Heb44 kidney cells; type: cell-based
[14] = test system: Capanc-1; experiment: Cell viability, Capanc-1 pancreatic cancer cells; type: cell-based, human; conditions: for IC50: Homo sapiens, Pancreatic cancer cell
[15] = test system: miapac; experiment: Cell viability, miapac pancreatic cancer cells; type: cell-based, human; conditions: for IC50: Homo sapiens, Pancreatic cancer cell, read-out: IC50 (−LogM) (converted)
[16] = test system: T29Kt1 cells; experiment: cells; conditions: Homo sapiens, T29Kt1, read-out: IC50 in T29k cells, Table 1
[17] = test system: H460 cells; experiment: cells; conditions: Homo sapiens; for IC50: NCI-H460, read-out: IC50 (−LogM), H460, Lung (converted); for pIC50: NCI-H460, read-out: IC50 in H460 cells, Table 1
[18] = test system: H322 cells; experiment: Cell viability, H322 lung cancer cells; type: cell-based, human; conditions: for IC50: Homo sapiens
[19] = test system: H1299 cells; experiment: Cell viability, H1299 lung cancer cells; type: cell-based, human; conditions: for IC50: Homo sapiens, NCI-H1299, read-out: IC50 (−LogM), h1299, Lung (converted)
[20] = test system: Sw620; experiment: Cell viability, Sw620 colon cancer cells; type: cell-based, human; conditions: Sw620, Colon
[21] = read-out: IC50 (−LogM), H226B, Lung, first H226B line (converted)
[22] = read-out: IC50 (−LogM), H226B, Lung, second H226B line (converted)
[23] = HCT-116, read-out: IC50 (−LogM), Hct116, Colon (converted)
[24] = read-out: IC50 (−LogM), HKE3, Colon, first HKE3 line (converted)
[25] = read-out: IC50 (−LogM), HKE3, Colon, second HKE3 line (converted)
[26] = ASPC1, read-out: IC50 (−LogM), ASPC1, Pancrease (converted)
[27] = DLD-1, read-out: IC50 (−LogM) (converted)
[28] = read-out: IC50 (−LogM), capanc1, Pancrease (converted)

## 4H-1,2,4-Triazol-4-amine, N-[[1-[(2,4-dichlorophenyl)methyl]-1H-indol-3-yl]methyle> [Oncrasin K002]
[1]
  IC50 in H460 cells: 4.8

## 7H-Pyrrolo[2,3-d]pyrimidin-4-amine, N-[3-(1H-imidazol-1-yl)propyl]-5,6-diphenyl-7- [Oncrasin K017]
[2]
  IC50 in T29 cells: 4.8
[3]
  IC50 in T29k cells: 5

## O=Cc1cn(Cc2ccccc2)c2ccccc12 [Oncrasin K014, 1-Benzylindole-3-carboxaldehyde]
[4]; [21]
  IC50: 2 µM
[4]; [22]
  IC50: 31.6 µM
[5]
  IC50: 31.6 µM
[6]
  IC50: 6.31 µM
[7]; [23]
  IC50: 7.94 µM
[8]
  IC50: < 31.6 µM
[9]; [24]
  IC50: 1 µM
[9]; [25]
  IC50: 5.01 µM
[10]; [26]
  IC50: 7.94 µM
[11]; [27]
  IC50: < 31.6 µM
[12]
  pIC50: 5.50
[13]
  pIC50: 6.30
[14]; [28]
  IC50: 31.6 µM
[15]
  IC50: < 31.6 µM
[16]
  pIC50: 5.30
[17]
  IC50: 0.0251 µM
  pIC50: 7.60

## NC(=S)NN=Cc1cn(Cc2ccccc2)c2ccccc12 [Oncrasin K031, Hydrazinecarbothioamide, 2-[[1-(phenylmethyl)-1H-indol-3-yl]methylene]-(9CI)]
[3]
  IC50 in T29k cells: 5

## O=S(=O)(Nc1nccs1)c1ccc(N=Cc2cn(Cc3ccccc3)c3ccccc23)cc1 [Oncrasin K042, Sulfanilamide, N4-[(1-benzylindol-3-yl)methylene]-N1-2-thiazolyl-(8CI)]
[4]; H226B, Lung, first H226B line
  IC50 (−LogM): 5.5 −LogM
[4]; H226B, Lung, second H226B line
  IC50 (−LogM): 5.3 −LogM
[5]; A549, Lung
  IC50 (−LogM): 5 −LogM
[6]; A549CK8, Lung
  IC50 (−LogM): 5.3 −LogM
[7]; Hct116, Colon
  IC50 (−LogM): 5 −LogM
[8]; CT116P53, Colon
  IC50 (−LogM): >4.5 −LogM
[9]; HKE3, Colon, first HKE3 line
  IC50 (−LogM): 6 −LogM
[9]; HKE3, Colon, second HKE3 line
  IC50 (−LogM): 5 −LogM
[18]; H322, Lung
  IC50 (−LogM): >4.5 −LogM
[19]; h1299, Lung
  IC50 (−LogM): >4.5 −LogM
[10]; ASPC1, Pancrease
  IC50 (−LogM): 5 −LogM
[11]; DLD1, Colon
  IC50 (−LogM): >4.5 −LogM
[12]
  IC50 (−LogM): 5.4 −LogM
[13]
  IC50 (−LogM): 6.7 −LogM
[14]; capanc1, Pancrease
  IC50 (−LogM): 5.5 −LogM
[20]
  IC50 (−LogM): >4.5 −LogM
[15]; miapac, Pancrease
  IC50 (−LogM): >4.5 −LogM
[3]
  IC50 in T29k cells: 6
[1]; H460, Lung
  IC50 (−LogM): 8 −LogM
[1]
  IC50 in H460 cells: 8

## CC(=O)Oc1cn(Cc2ccccc2)c2ccccc12 [Oncrasin K047, Indoxyl, 1-benzyl-, acetate (6CI)]
[1]
  IC50 in H460 cells: 5

## O=Cc1cn(Cc2ccc(Cl)cc2Cl)c2ccccc12 [Oncrasin K050, 1-(2,4-dichlorobenzyl)-1H-indole-3-carbaldehyde]
[3]; listed as K50
  IC50 in T29k cells: 5
[3]
  IC50 in T29k cells: 5.8
[1]; listed as K50
  IC50 in H460 cells: 6.3
[1]
  IC50 in H460 cells: 7

## O=Cc1cn(Cc2ccccc2F)c2ccccc12 [Oncrasin K051, 1-(2-fluorobenzyl)-1H-indole-3-carbaldehyde]
[4]; [21]
  IC50: 0.794 µM
[4]; [22]
  IC50: 10 µM
[5]
  IC50: 12.6 µM
[6]
  IC50: 10 µM
[7]; [23]
  IC50: 10 µM
[8]
  IC50: < 31.6 µM
[9]; [25]
  IC50: 10 µM
[19]
  IC50: 7.94 µM
[10]; [26]
  IC50: 7.94 µM
[11]; [27]
  IC50: < 31.6 µM
[12]
  pIC50: 5.00
[13]
  pIC50: 6.50
[14]; [28]
  IC50: 31.6 µM
[15]
  IC50: < 31.6 µM
[16]
  pIC50: 6.50
[17]
  IC50: 0.1 µM
  pIC50: 7.00

## CC(=O)c1cn(Cc2cccc(Cl)c2)c2ccccc12 [Oncrasin K058]
[16]
  pIC50: 4.50

## O=Cc1cn(Cc2cccc(C(F)(F)F)c2)c2ccccc12 [Oncrasin K62, 1-[3-(trifluoromethyl)benzyl]-1H-indole-3-carbaldehyde]
[4]; [21]
  IC50: 3.16 µM
[4]; [22]
  IC50: 10 µM
[5]
  IC50: 10 µM
[6]
  IC50: 7.94 µM
[7]; [23]
  IC50: 12.6 µM
[8]
  IC50: < 31.6 µM
[9]; [24]
  IC50: 3.16 µM
[9]; [25]
  IC50: 5.01 µM
[18]; NCI-H322, read-out: IC50 (−LogM) (converted)
  IC50: 10 µM
[19]
  IC50: 10 µM
[10]; [26]
  IC50: 15.8 µM
[11]; [27]
  IC50: < 31.6 µM
[12]
  pIC50: 5.00
[13]
  pIC50: 7.00
[14]; [28]
  IC50: 31.6 µM
[15]
  IC50: < 31.6 µM
[16]
  pIC50: 5.25
[17]
  IC50: 0.0158 µM
  pIC50: 7.86

## OCc1cn(Cc2cccc(C(F)(F)F)c2)c2ccccc12 [Oncrasin K63, {1-[3-(trifluoromethyl)benzyl]-1H-indol-3-yl}methanol]
[4]; H226B, Lung, first H226B line, read-out: IC50 (−LogM) (converted)
  IC50: 0.316 µM
[4]; H226B, Lung, second H226B line, read-out: IC50 (−LogM) (converted)
  IC50: 1.58 µM
[6]; A549CK8, Lung
  IC50: 10 µM
[7]; HCT-116, Hct116, Colon, read-out: IC50 (−LogM) (converted)
  IC50: 7.94 µM
[8]; CT116P53, Colon
  IC50: < 31.6 µM
[9]; HKE3, Colon, first HKE3 line, read-out: IC50 (−LogM) (converted)
  IC50: 1 µM
[9]; HKE3, Colon, second HKE3 line, read-out: IC50 (−LogM) (converted)
  IC50: 1.58 µM
[18]; NCI-H322, H322, Lung, read-out: IC50 (−LogM) (converted)
  IC50: 31.6 µM
[10]; ASPC1, Pancrease, read-out: IC50 (−LogM) (converted)
  IC50: 10 µM
[11]; DLD-1, DLD1, Colon, read-out: IC50 (−LogM) (converted)
  IC50: < 31.6 µM
[12]
  pIC50: 5.00
[13]
  pIC50: 6.60
[14]; capanc1, Pancrease, read-out: IC50 (−LogM) (converted)
  IC50: 31.6 µM
[15]; miapac, Pancrease
  IC50: < 31.6 µM
[16]
  pIC50: 6.25
[17]
  IC50: 0.0398 µM
  pIC50: 7.40

## O=Cc1cn(Cc2ccc(C(F)(F)F)cc2)c2ccccc12 [Oncrasin K64, 1H-Indole-3-carboxaldehyde, 1-[[4-(trifluoromethyl)phenyl]methyl]-(9CI)]
[1]
  IC50 in H460 cells: 5.8

## OCN1CC(Cc2ccc(C(F)(F)F)cc2)c2ccccc21 (stereo not drawn) [Oncrasin K65]
[16]
  pIC50: 5.90
[17]
  pIC50: 5.90

## O=Cc1cn(Cc2ccc([N+](=O)[O-])cc2)c2ccccc12 [Oncrasin K70, 1-(4-nitrobenzyl)-1H-indole-3-carbaldehyde]
[16]
  pIC50: 5.00
[17]
  pIC50: 6.30

## OCc1cn(Cc2cccc(Cl)c2)c2ccccc12 [Oncrasin K72, 1H-Indole-3-methanol, 1-[(3-chlorophenyl)methyl]-(9CI)]
[3]
  IC50 in T29k cells: 5.75
[1]
  IC50 in H460 cells: 5.9

## OCc1cn(Cc2ccc(Cl)cc2Cl)c2ccccc12 [Oncrasin K74, 1H-Indole-3-methanol, 1-[(2,4-dichlorophenyl)methyl]-]
[16]
  pIC50: 5.80
[17]
  pIC50: 7.10

## O=C(CCCCCCC(=O)N/N=C/c1cn(Cc2ccc(Cl)cc2)c2ccccc12)CCCCC1SCC2NC(=O)NC21 (stereo not drawn) [Oncrasin K130]
[16]
  pIC50: 5.60
[17]
  pIC50: 6.40
